# Assay results taken from patent US20050250752A1, “Cembranoids with chemopreventive activity” (priority 2002, published 2005).
# Legend:
# [1] = system: Epstein-Barr virus early antigen (EBV-EA) of Raji cells induced by tumor promoter (TPA); assay: Inhibition of EBV-EA activation induced by TPA in Raji cells; assay type: cell-based; conditions: for EBV-EA induction, percentage relative to the positive control value (100%): TPA 32 pmol, Raji cells, 48 h
# Description: (§1) The inhibition of EBV-EA activation was assayed using Raji cells (virus non-producer type). The indicator cells (Raji, 1×10^6/ml) were incubated at 37° C. for 48 h in 1 ml of medium containing n-butyric acid (4 mmol), TPA(12-O-tetradecanoylphorbol 13-acetate)(32 pmol=20 ng in 2 μl DMSO) as inducer and various amounts of test compounds in 5 μl DMSO. Smears were made from the cell suspension, and the activated cells, which were stained by EBV-EA positive serum from nasopharygeal carcinoma patients were detected by an indirect immunofluorescence technique. For each compound, assays were performed in triplicate. The average EBV-EA induction of the test compounds was expressed as a relative ratio to the control experiment (100%), which was carried out only with n-butyric acid plus TPA. The viability of treated Raji cells was assayed by the Trypan Blue staining method.
# Raji cells = assay: Viability of treated Raji cells (Trypan Blue staining); assay type: cell-based
# Description: as §1
# [2] = system: papillomas (mouse skin carcinogenesis induced by DMBA/TPA); assay: Two-stage mouse skin carcinogenesis model induced by DMBA/TPA; assay type: in vivo, mouse (female ICR); conditions: topical 85 nm 1 hour before TPA, ICR mice
# Description: In the two-stage mouse skin carcinogenesis model induced by DMBA/TPA, the animals (specific pathogen-free female ICR, 6 weeks old) were divided into 5 groups, 15 mice each. The back of each mouse was shaved with surgical clippers, and the mice were topically treated with DMBA (100 μg, 390 nmol) in acetone (0.1 ml) as an initiation treatment. For the positive control group, 1 week after initiation with DMBA, mice were promoted by the application with TPA (1 μg, 1.7 nmol) in acetone (0.1 ml) twice a week. The other four groups received a topical application of each of the sarcophine semi-synthetic derivatives (85 nm) 1 hour before application of the tumor promoter. The incidence of papillomas was observed weekly for 20 weeks. The percentage of mice bearing papillomas and the average number of papillomas per mouse were recorded.
# [3] = x 1000 mol ratio/TPA (32 nmol/mL)
compound,measurement,setting,value
13S-hydroxysarcophine [Compound 4],"EBV-EA induction, percentage relative to the positive control value (100%)",[1]; x 10 mol ratio/TPA,100%
same,"EBV-EA induction, percentage relative to the positive control value (100%)",[1]; x 100 mol ratio/TPA,81.3%
same,"EBV-EA induction, percentage relative to the positive control value (100%)",[1]; x 500 mol ratio/TPA,62.8%
same,"EBV-EA induction, percentage relative to the positive control value (100%)",[1]; [3],14.2%
same,viability percentage of Raji cells (indicator cells),Raji cells; x 10 mol ratio/TPA,> 80%
same,viability percentage of Raji cells (indicator cells),Raji cells; x 100 mol ratio/TPA,> 80%
same,viability percentage of Raji cells (indicator cells),Raji cells; x 500 mol ratio/TPA,> 80%
same,viability percentage of Raji cells (indicator cells),Raji cells; [3],60%
"CC1=C2CC/C(C)=C/CC[C@]3(C)O[C@H]3CC/C(C)=C/[C@@H]2OC1=O [Compound 3, Sarcophine, reference compound]","EBV-EA induction, percentage relative to the positive control value (100%)",[1]; x 10 mol ratio/TPA,100%
same,"EBV-EA induction, percentage relative to the positive control value (100%)",[1]; x 100 mol ratio/TPA,84.0%
same,"EBV-EA induction, percentage relative to the positive control value (100%)",[1]; x 500 mol ratio/TPA,67.5%
same,"EBV-EA induction, percentage relative to the positive control value (100%)",[1]; [3],19.6%
same,viability percentage of Raji cells (indicator cells),"Raji cells; human, 48 h, 0.32 nmol/mL",> 80%
same,viability percentage of Raji cells (indicator cells),"Raji cells; human, 48 h, 3.2 nmol/mL",> 80%
same,viability percentage of Raji cells (indicator cells),Raji cells; x 500 mol ratio/TPA,> 80%
same,viability percentage of Raji cells (indicator cells),Raji cells; [3],60%
"CC1=C2CC/C(C=O)=C/CC[C@]3(C)O[C@H]3CC/C(C)=C/[C@@H]2OC1=O [Compound 6, sarcophine-20-carboxyaldehyde]","EBV-EA induction, percentage relative to the positive control value (100%)",[1]; x 10 mol ratio/TPA,96.0%
same,"EBV-EA induction, percentage relative to the positive control value (100%)",[1]; x 100 mol ratio/TPA,78.2%
same,"EBV-EA induction, percentage relative to the positive control value (100%)",[1]; x 500 mol ratio/TPA,60.8%
same,"EBV-EA induction, percentage relative to the positive control value (100%)",[1]; [3],12.7%
same,viability percentage of Raji cells (indicator cells),Raji cells; x 10 mol ratio/TPA,> 80%
same,viability percentage of Raji cells (indicator cells),Raji cells; x 100 mol ratio/TPA,> 80%
same,viability percentage of Raji cells (indicator cells),Raji cells; x 500 mol ratio/TPA,> 80%
same,viability percentage of Raji cells (indicator cells),Raji cells; [3],60%
"C/C1=C\CCC2(C)OC2CC/C(C)=C/C=C(/[C@@](C)(O)CO)CC1 (stereo partly drawn) [Compound 11, 7,8-Epoxy-1,3,11-cembratriene-15R(α),16-diol]",Papilloma Bearer (%),[2]; week 1 of promotion,0.0%
same,Papillomas/mouse,[2]; week 1 of promotion,0.0
same,Papilloma Bearer (%),[2]; week 2 of promotion,0.0%
same,Papillomas/mouse,[2]; week 2 of promotion,0.0
same,Papilloma Bearer (%),[2]; week 3 of promotion,0.0%
same,Papillomas/mouse,[2]; week 3 of promotion,0.0
same,Papilloma Bearer (%),[2]; week 4 of promotion,0.0%
same,Papillomas/mouse,[2]; week 4 of promotion,0.0
same,Papilloma Bearer (%),[2]; week 5 of promotion,0.0%
same,Papillomas/mouse,[2]; week 5 of promotion,0.0
same,Papilloma Bearer (%),[2]; week 6 of promotion,0.0%
same,Papillomas/mouse,[2]; week 6 of promotion,0.0
same,Papilloma Bearer (%),[2]; week 7 of promotion,0.0%
same,Papillomas/mouse,[2]; week 7 of promotion,0.0
same,Papilloma Bearer (%),[2]; week 8 of promotion,13.3%
same,Papillomas/mouse,[2]; week 8 of promotion,0.6
same,Papilloma Bearer (%),[2]; week 9 of promotion,20.0%
same,Papillomas/mouse,[2]; week 9 of promotion,1.3
same,Papilloma Bearer (%),[2]; week 10 of promotion,26.6%
same,Papillomas/mouse,[2]; week 10 of promotion,1.6
same,Papilloma Bearer (%),[2]; week 11 of promotion,40.0%
same,Papillomas/mouse,[2]; week 11 of promotion,1.9
same,Papilloma Bearer (%),[2]; week 12 of promotion,46.6%
same,Papillomas/mouse,[2]; week 12 of promotion,2.1
same,Papilloma Bearer (%),[2]; week 13 of promotion,53.3%
same,Papillomas/mouse,[2]; week 13 of promotion,2.4
same,Papilloma Bearer (%),[2]; week 14 of promotion,53.3%
same,Papillomas/mouse,[2]; week 14 of promotion,2.7
same,Papilloma Bearer (%),[2]; week 15 of promotion,60.0%
same,Papillomas/mouse,[2]; week 15 of promotion,3.0
same,Papilloma Bearer (%),[2]; week 16 of promotion,73.3%
same,Papillomas/mouse,[2]; week 16 of promotion,3.4
same,Papilloma Bearer (%),[2]; week 17 of promotion,80.0%
same,Papillomas/mouse,[2]; week 17 of promotion,3.7
same,Papilloma Bearer (%),[2]; week 18 of promotion,80.0%
same,Papillomas/mouse,[2]; week 18 of promotion,4.2
same,Papilloma Bearer (%),[2]; week 19 of promotion,86.6%
same,Papillomas/mouse,[2]; week 19 of promotion,4.7
same,Papilloma Bearer (%),[2]; week 20 of promotion,86.6%
same,Papillomas/mouse,[2]; week 20 of promotion,5.1
"CC1=CC=C([C@@](C)(O)CO)C[C@@H](O)C(C)=CCCC2(C)OC2CC1 (stereo partly drawn) [Compound 13, 7,8-Epoxy-1,3,11-cembratriene-13R(α),15R(α),16-triol]","EBV-EA induction, percentage relative to the positive control value (100%)",[1]; x 10 mol ratio/TPA,92.6%
same,"EBV-EA induction, percentage relative to the positive control value (100%)",[1]; x 100 mol ratio/TPA,72.9%
same,"EBV-EA induction, percentage relative to the positive control value (100%)",[1]; x 500 mol ratio/TPA,54.2%
same,"EBV-EA induction, percentage relative to the positive control value (100%)",[1]; [3],5.7%
same,viability percentage of Raji cells (indicator cells),Raji cells; x 10 mol ratio/TPA,> 80%
same,viability percentage of Raji cells (indicator cells),Raji cells; x 100 mol ratio/TPA,> 80%
same,viability percentage of Raji cells (indicator cells),Raji cells; x 500 mol ratio/TPA,> 80%
same,viability percentage of Raji cells (indicator cells),Raji cells; [3],60%
"C/C1=C\C=C(\C(C)(O)CO)CC(=O)/C(C)=C/CCC2(C)OC2CC1 (stereo not drawn) [Compound 14, 7,8-Epoxy-13-oxo-1,3,11-cembratriene-15R(α),16-diol]","EBV-EA induction, percentage relative to the positive control value (100%)",[1]; x 10 mol ratio/TPA,94.0%
same,"EBV-EA induction, percentage relative to the positive control value (100%)",[1]; x 100 mol ratio/TPA,75.1%
same,"EBV-EA induction, percentage relative to the positive control value (100%)",[1]; x 500 mol ratio/TPA,56.7%
same,"EBV-EA induction, percentage relative to the positive control value (100%)",[1]; [3],8.3%
same,viability percentage of Raji cells (indicator cells),Raji cells; x 10 mol ratio/TPA,> 80%
same,viability percentage of Raji cells (indicator cells),Raji cells; x 100 mol ratio/TPA,> 80%
same,viability percentage of Raji cells (indicator cells),Raji cells; x 500 mol ratio/TPA,> 80%
same,viability percentage of Raji cells (indicator cells),Raji cells; [3],60%
"C/C1=C\C=C(\C(C)(O)CO)CC/C(C=O)=C/CCC2(C)OC2CC1 (stereo not drawn) [Compound 15, 7,8-Epoxy-1,3,11-cembratriene-15R(α),16-diol-20-carboxyaldehyde]","EBV-EA induction, percentage relative to the positive control value (100%)",[1]; x 10 mol ratio/TPA,90.6%
same,"EBV-EA induction, percentage relative to the positive control value (100%)",[1]; x 100 mol ratio/TPA,71.3%
same,"EBV-EA induction, percentage relative to the positive control value (100%)",[1]; x 500 mol ratio/TPA,52.4%
same,"EBV-EA induction, percentage relative to the positive control value (100%)",[1]; [3],3.6%
same,viability percentage of Raji cells (indicator cells),Raji cells; x 10 mol ratio/TPA,> 80%
same,viability percentage of Raji cells (indicator cells),Raji cells; x 100 mol ratio/TPA,> 80%
same,viability percentage of Raji cells (indicator cells),Raji cells; x 500 mol ratio/TPA,> 80%
same,viability percentage of Raji cells (indicator cells),Raji cells; [3],60%
"C/C1=C\C=C(\C(C)C)[C@@H](O)C/C(C)=C/CC/C(C)=C/CC1 [Sarcophytol-A, sarcophytol A, reference compound]",inhibition of EBV-EA activation induced by TPA,[1],88%
same,"EBV-EA induction, percentage relative to the positive control value (100%)",[1]; x 10 mol ratio/TPA,97.3%
same,"EBV-EA induction, percentage relative to the positive control value (100%)",[1]; x 100 mol ratio/TPA,79.1%
same,"EBV-EA induction, percentage relative to the positive control value (100%)",[1]; x 500 mol ratio/TPA,60.4%
same,"EBV-EA induction, percentage relative to the positive control value (100%)",[1]; [3],11.7%
same,viability percentage of Raji cells (indicator cells),Raji cells; x 10 mol ratio/TPA,> 80%
same,viability percentage of Raji cells (indicator cells),Raji cells; x 100 mol ratio/TPA,> 80%
same,viability percentage of Raji cells (indicator cells),Raji cells; x 500 mol ratio/TPA,> 80%
same,viability percentage of Raji cells (indicator cells),Raji cells; [3],50%
